# Patent US20080299538A1, “Pathogen Inactivation of Whole Blood” (CARIDIANBCT BIOTECHNOLOGIES, LLC, priority 2003, published 2008)
# Values joined by “and” are separate entries in the source; they are usually repeats but may differ in a detail not shown here. Equal entries are not always repeated.
# Assays:
# platelets = test: Platelet quality during storage; assay type: cell-based
# Description: Platelet quality is assessed with measurements of pH, swirl, lactate production rate and glucose consumption rate on Days 1 and 5.
# Platelets were separated from pathogen inactivated whole blood and markers of platelet quality were measured.
# red blood cells [1] = test: Mean osmotic fragility of stored red blood cells; assay type: cell-based; settings: stored for 42 days; vs untreated cells
# Description: Osmotic fragility during storage of red blood cells separated from pathogen inactivated whole blood was measured. The normal red blood cell is a relatively impermeable biconcave disc which maintains osmotic equilibrium with the surrounding medium. As the surrounding medium becomes hypotonic, fluid will be taken into the cell to maintain stability. Eventually under very hypotonic conditions the cell will fill to capacity and rupture. Red blood cells with damaged membranes have a decreased capacity to expand, and will rupture in mildly hypotonic conditions that fail to lyse normal red cells. […] Mean osmotic fragility (MOF) is a measure of red blood cell membrane fragility. The higher the MOF, the more fragile the red blood cells are. MOF is the concentration of NaCl where 50% of the red blood cells hemolyze.
# T cells = test: CD69 expression after PMA activation (flow cytometry); assay type: cell-based; settings: all energies tested (22, 33 and 44 J/mLRBC)
# S. pyogenes = test: Low bacteria titer study in whole blood; assay type: cell-based; set-up: key: +: some of the replicates of the cultures in the panel grew in under 5 days; −: none of the replicates of the cultures in the panel grew in under 5 days
# Text: (§1) To test whether pathogen inactivation of whole blood was effective in inactivating clinically relevant levels of bacteria which may be present in the whole blood, low titer bacteria studies were done. After pathogen inactivation of whole blood, the whole blood was separated into a red blood cell (RBC) component and platelet rich plasma (PRP) component. A + symbol means that some of the replicates of the cultures in the panel grew in under 5 days. A − symbol means that none of the replicates of the cultures in the panel grew in under 5 days.
# Y. enterocolitica = test: Low bacteria titer study in whole blood; assay type: cell-based; set-up: key: +: some of the replicates of the cultures in the panel grew in under 5 days; −: none of the replicates of the cultures in the panel grew in under 5 days
# Text: as §1
# A. baumannii = test: Low bacteria titer study in whole blood; assay type: cell-based; set-up: key: +: some of the replicates of the cultures in the panel grew in under 5 days; −: none of the replicates of the cultures in the panel grew in under 5 days; settings: 110 J/mLRBC (n = 3)
# Text: as §1
# S. liquefaciens = test: Low bacteria titer study in whole blood; assay type: cell-based; set-up: key: +: some of the replicates of the cultures in the panel grew in under 5 days; −: none of the replicates of the cultures in the panel grew in under 5 days
# Text: as §1
# white blood cells (WBCs) [2] = test: Cytokine production in response to LPS (Cytometric Bead Assay); settings: for % inhibition of IFN-γ production / % inhibition of IL-2 production / % inhibition of IL-4 production / % inhibition of IL-5 production / % inhibition of IL-10 production / % inhibition of TNFα production / % inhibition of IL-1β production / % inhibition of IL-6 production / % inhibition of IL-8 production: LPS
# white blood cells (WBCs) [3] = test: WBC proliferation in response to anti-CD3/CD28 (thymidine incorporation); settings: for % inhibition of proliferation: CD3/28
# red blood cells [4] = test: ATP level in stored red blood cells; assay type: cell-based; settings: increased energy levels
# Description: ATP level or concentration was measured in red blood cells separated from pathogen inactivated whole blood. ATP concentration is a measure of the amount of ATP present in the cells at a given time.
# [5] = tested on: vesicular stomatitis virus (VSV); assay type: cell-based; settings: as a function of illumination energy
# white blood cells (WBCs) [6] = test: WBC functionality, all tested stimuli (summary statements); assay type: cell-based; settings: all tested stimuli and antigen presentation; all energies tested; stimulated control vs stimulated treated cells
# [7] = over 5 days of storage at higher energy levels
# [8] = inflammatory cytokines, 22 J/mlRBC
# [9] = inflammatory cytokines, 33 J/mlRBC
# [10] = inflammatory cytokines, 44 J/mlRBC
structure (smiles),measurement,setting,value
"Cc1cc2nc3c(=O)[nH]c(=O)nc-3n(C[C@H](O)[C@H](O)[C@H](O)CO)c2cc1C [riboflavin, 7,8-dimethyl-10-ribityl isoalloxazine]",platelet carbon dioxide production,platelets; [7],appears to decrease
same,platelet glucose consumption,platelets; [7],appears to decrease
same,platelet lactate production,platelets; [7],appears to increase
same,platelet oxygen consumption,platelets; [7],appears to increase
same,platelet pH,"platelets; over 5 days of storage, treated and untreated",remains the same
same,osmotic fragility (MOF) of red blood cells,red blood cells [1],slightly more fragile than untreated cells
same,expression of CD69 on T cells after PMA activation,T cells,inhibited expression of CD69
same,Bacteria detected (+) or not detected (−) after treatment,"S. pyogenes; 80 J/mLRBC (n = 3), PRP",−
same,Bacteria detected (+) or not detected (−) after treatment,"S. pyogenes; 110 J/mLRBC (n = 3), PRP",−
same,Bacteria detected (+) or not detected (−) after treatment,"S. pyogenes; 110 J/mLRBC (n = 3), RBC",−
same,Bacteria detected (+) or not detected (−) after treatment,"Y. enterocolitica; 80 J/mLRBC (n = 3), PRP",−
same,Bacteria detected (+) or not detected (−) after treatment,"Y. enterocolitica; 80 J/mLRBC (n = 3), RBC",−
same,Bacteria detected (+) or not detected (−) after treatment,"Y. enterocolitica; 110 J/mLRBC (n = 3), PRP",−
same,Bacteria detected (+) or not detected (−) after treatment,"Y. enterocolitica; 110 J/mLRBC (n = 3), RBC",−
same,Bacteria detected (+) or not detected (−) after treatment,A. baumannii; PRP,−
same,Bacteria detected (+) or not detected (−) after treatment,A. baumannii; RBC,−
same,Bacteria detected (+) or not detected (−) after treatment,"S. liquefaciens; 80 J/mLRBC (n = 3), PRP",−
same,Bacteria detected (+) or not detected (−) after treatment,"S. liquefaciens; 80 J/mLRBC (n = 3), RBC",−
same,Bacteria detected (+) or not detected (−) after treatment,"S. liquefaciens; 110 J/mLRBC (n = 3), PRP",−
same,Bacteria detected (+) or not detected (−) after treatment,"S. liquefaciens; 110 J/mLRBC (n = 3), RBC",−
same,inflammatory cytokine production in response to LPS,white blood cells (WBCs) [2],"reduced with treatment, but not to medium control levels"
same,TH1/TH2 cytokine levels induced by LPS,white blood cells (WBCs) [2]; 44 J/mlRBC,reduced to medium control levels
same,% inhibition of IFN-γ production,"white blood cells (WBCs) [2]; TH1/TH2 cytokines, 22 J/mlRBC",63 ± 71%
same,% inhibition of IL-2 production,"white blood cells (WBCs) [2]; TH1/TH2 cytokines, 22 J/mlRBC",63 ± 54%
same,% inhibition of IL-4 production,"white blood cells (WBCs) [2]; TH1/TH2 cytokines, 22 J/mlRBC",59 ± 65%
same,% inhibition of IL-5 production,"white blood cells (WBCs) [2]; TH1/TH2 cytokines, 22 J/mlRBC",89 ± 2%
same,% inhibition of IL-10 production,"white blood cells (WBCs) [2]; TH1/TH2 cytokines, 22 J/mlRBC",66 ± 21%
same,% inhibition of TNFα production,"white blood cells (WBCs) [2]; TH1/TH2 cytokines, 22 J/mlRBC",45 ± 53%
same,% inhibition of IFN-γ production,"white blood cells (WBCs) [2]; TH1/TH2 cytokines, 33 J/mlRBC",93 ± 8%
same,% inhibition of IL-4 production,"white blood cells (WBCs) [2]; TH1/TH2 cytokines, 33 J/mlRBC",90 ± 4%
same,% inhibition of IL-10 production,"white blood cells (WBCs) [2]; TH1/TH2 cytokines, 33 J/mlRBC",94 ± 4%
same,% inhibition of TNFα production,"white blood cells (WBCs) [2]; TH1/TH2 cytokines, 33 J/mlRBC",94 ± 5%
same,% inhibition of IFN-γ production,"white blood cells (WBCs) [2]; TH1/TH2 cytokines, 44 J/mlRBC",93 ± 7%
same,% inhibition of IL-2 production,"white blood cells (WBCs) [2]; TH1/TH2 cytokines, 44 J/mlRBC",88 ± 4%
same,% inhibition of IL-4 production,"white blood cells (WBCs) [2]; TH1/TH2 cytokines, 44 J/mlRBC",90 ± 4%
same,% inhibition of IL-5 production,"white blood cells (WBCs) [2]; TH1/TH2 cytokines, 44 J/mlRBC",91 ± 6%
same,% inhibition of IL-10 production,"white blood cells (WBCs) [2]; TH1/TH2 cytokines, 44 J/mlRBC",99 ± 1%
same,% inhibition of TNFα production,"white blood cells (WBCs) [2]; TH1/TH2 cytokines, 44 J/mlRBC",94 ± 8%
same,% inhibition of IL-1β production,white blood cells (WBCs) [2]; [8],68 ± 19%
same,% inhibition of IL-6 production,white blood cells (WBCs) [2]; [8],84 ± 8%
same,% inhibition of IL-8 production,white blood cells (WBCs) [2]; [8],85 ± 8%
same,% inhibition of IL-10 production,white blood cells (WBCs) [2]; [8],63 ± 21%
same,% inhibition of TNFα production,white blood cells (WBCs) [2]; [8],54 ± 35%
same,% inhibition of IL-1β production,white blood cells (WBCs) [2]; [9],91 ± 8%
same,% inhibition of IL-6 production,white blood cells (WBCs) [2]; [9],96 ± 3%
same,% inhibition of IL-8 production,white blood cells (WBCs) [2]; [9],96 ± 4%
same,% inhibition of IL-10 production,white blood cells (WBCs) [2]; [9],94 ± 5%
same,% inhibition of TNFα production,white blood cells (WBCs) [2]; [9],92 ± 8%
same,% inhibition of IL-1β production,white blood cells (WBCs) [2]; [10],98 ± 3%
same,% inhibition of IL-6 production,white blood cells (WBCs) [2]; [10],99 ± 1%
same,% inhibition of IL-8 production,white blood cells (WBCs) [2]; [10],99 ± 1%
same,% inhibition of IL-10 production,white blood cells (WBCs) [2]; [10],99 ± 1%
same,% inhibition of TNFα production,white blood cells (WBCs) [2]; [10],98 ± 2%
same,% inhibition of proliferation,white blood cells (WBCs) [3]; 22 J/mlRBC,93 ± 2%
same,% inhibition of proliferation,white blood cells (WBCs) [3]; 33 J/mlRBC,99 ± 0%
same,% inhibition of proliferation,white blood cells (WBCs) [3]; 44 J/mlRBC,99 ± 0%
same,induced proliferation of treated WBCs,"white blood cells (WBCs) [3]; plate-bound anti-CD3 plus anti-CD28 antibodies, 33 J/mlRBC and above, 3 days of incubation",no detectable induced proliferation
same,total concentration of ATP in red blood cells,red blood cells [4],decrease the total concentration of ATP
same,log reduction of virus,[5],increases linearly with respect to energy
same,inhibition of WBC proliferation / decrease of proliferative response,white blood cells (WBCs) [6],93-99% and > 90%
